Reference: patent publication US20220356170A1, “SREBP INHIBITOR COMPRISING A THIOPHENE CENTRAL RING” (Capulus Therapeutics, LLC, priority 2019, published 2022)
pIC50: −log10 of the molar value.

Experiments:
Experiment in all cases: Cancer cell growth inhibition, Sulforhodamine B
Format in all cases: cell-based
L-363 = settings: Homo sapiens; L-363 (hematological), 72 hr; Responder Cell Lines
Protocol: (§1) The ability of select compounds to inhibit cell growth in various cancer cell lines are evaluated. […] The cell lines shown in Table 5 have reduced growth by at least 50% at 10 uM or lower over 72 hr treatment in growth media. The cell lines shown in Table 6 have reduced growth by at least 50% with an IC50 greater than 10 uM.
(§2) Six 10-fold compound dilutions are prepared in DMSO (e.g. 10 mM, 1 mM, 100 uM, 10 uM, 1 uM, and 0.1 uM). Single data points are acquired for each concentration. The final concentration of DMSO is 0.1%. The duration of the treatment is 72 hr. Growth inhibition is measured using Sulforhodamine B in a protein staining assay. Activity of the agents is determined by evaluation the following parameters: IC50, GI50, IC10, TGI, LC50, IC90, and GI90 (where these values can be calculated).

EFO21 = settings: Homo sapiens, EFO-21; EFO21 (ovary), 72 hr; Responder Cell Lines
Protocol: as §1, §2

UO31 = settings: Homo sapiens, UO-31; UO31 (kidney), 72 hr; Non-Responder Cell Lines with IC50 >10 uM or Not Determined
Protocol: as §1, §2

ASPC1 = settings: Homo sapiens; ASPC1 (pancreas), 72 hr; Responder Cell Lines
Protocol: as §1, §2

THP-1 = settings: Homo sapiens, THP-1, 72 h, THP-1 (hematological)
Protocol: as §1, §2

SU-DHL-6 = settings: Homo sapiens, SU-DHL-6, 72 h, SU-DHL-6 (hematological)
Protocol: as §1, §2

MG63 = settings: Homo sapiens, MG-63; MG63 (bone), 72 hr; Non-Responder Cell Lines with IC50 >10 uM or Not Determined
Protocol: as §1, §2

SKMEL5 = settings: Homo sapiens, SK-MEL-5, 72 h, SKMEL5 (skin)
Protocol: as §1, §2

MDAMB436 = settings: Homo sapiens, MDA-MB-436; MDAMB436 (breast), 72 hr; Non-Responder Cell Lines with IC50 >10 uM or Not Determined
Protocol: as §1, §2

LOVO = settings: Homo sapiens; LOVO (colon), 72 hr; Responder Cell Lines
Protocol: as §1, §2

SKLMS1 = settings: Homo sapiens, SK-LMS-1; SKLMS1 (uterus), 72 hr; Non-Responder Cell Lines with IC50 >10 uM or Not Determined
Protocol: as §1, §2

HCT15 = settings: Homo sapiens, HCT-15; HCT15 (colon), 72 hr; Responder Cell Lines
Protocol: as §1, §2

KASUMI-1 = settings: Homo sapiens; KASUMI-1 (hematological), 72 hr; Non-Responder Cell Lines with IC50 >10 uM or Not Determined
Protocol: as §1, §2

SKOV3 = settings: Homo sapiens, SK-OV-3; SKOV3 (ovary), 72 hr; Non-Responder Cell Lines with IC50 >10 uM or Not Determined
Protocol: as §1, §2

JIMT1 = settings: Homo sapiens, JIMT-1; JIMT1 (breast), 72 hr; Responder Cell Lines
Protocol: as §1, §2

RAMOS = settings: Homo sapiens, 72 h, RAMOS (hematological)
Protocol: as §1, §2

JEG3 = settings: Homo sapiens, JEG-3; JEG3 (placenta), 72 hr; Responder Cell Lines
Protocol: as §1, §2

CACO2 = settings: Homo sapiens, Caco-2; CACO2 (colon), 72 hr; Responder Cell Lines
Protocol: as §1, §2

WSU-NHL = settings: Homo sapiens, 72 h, WSU-NHL (hematological)
Protocol: as §1, §2

HEK293 = settings: Homo sapiens; HEK293 (kidney), 72 hr; Responder Cell Lines
Protocol: as §1, §2

C33A = settings: Homo sapiens, C-33-A; 72 hr; Responder Cell Lines
Protocol: as §1, §2

SAOS2 = settings: Homo sapiens, SAOS-2; SAOS2 (bone), 72 hr; Non-Responder Cell Lines with IC50 >10 uM or Not Determined
Protocol: as §1, §2

MV4-11 = settings: Homo sapiens, MV4-11, 72 h, MV4-11 (hematological)
Protocol: as §1, §2

DLD1 = settings: Homo sapiens, DLD-1; DLD1 (colon), 72 hr; Non-Responder Cell Lines with IC50 >10 uM or Not Determined
Protocol: as §1, §2

[1] = Non-Responder Cell Lines with IC50 >10 uM or Not Determined

pIC50 (L-363): > 5.00
pIC50 (EFO21): > 5.00
pIC50 (UO31): < 5.00
pIC50 (ASPC1): > 5.00
pIC50 (THP-1; [1]): < 5.00
pIC50 (THP-1; Responder Cell Lines): > 5.00
pIC50 (SU-DHL-6; [1]): < 5.00
pIC50 (SU-DHL-6; Responder Cell Lines): > 5.00
pIC50 (MG63): < 5.00
pIC50 (SKMEL5; [1]): < 5.00
pIC50 (SKMEL5; Responder Cell Lines): > 5.00
pIC50 (MDAMB436): < 5.00
pIC50 (LOVO): > 5.00
pIC50 (SKLMS1): < 5.00
pIC50 (HCT15): > 5.00
pIC50 (KASUMI-1): < 5.00
pIC50 (SKOV3): < 5.00
pIC50 (JIMT1): > 5.00
pIC50 (RAMOS; [1]): < 5.00
pIC50 (RAMOS; Responder Cell Lines): > 5.00
pIC50 (JEG3): > 5.00
pIC50 (CACO2): > 5.00
pIC50 (WSU-NHL; [1]): < 5.00
pIC50 (WSU-NHL; Responder Cell Lines): > 5.00
pIC50 (C33A): > 5.00
pIC50 (SAOS2): < 5.00
pIC50 (MV4-11; [1]): < 5.00
pIC50 (MV4-11; Responder Cell Lines): > 5.00
pIC50 (DLD1): < 5.00
Structure (SMILES): CC(C)(O)c1cc(-c2csc(-c3ccc(C(=O)N4CCC(O)CC4)cc3Cl)c2)ccn1 [Compound 1, (3-chloro-4-(4-(2-(2-hydroxypropan-2-yl)pyridin-4-yl)thiophen-2-yl)phenyl)(4-hydroxypiperidin-1-yl)methanone]
pIC50 (HEK293): > 5.00
